This is an account of results in patent US20130197027A1, “HETEROCYCLYL-AZABICYCLO[3.2.1]OCTANE ANALOGS AS SELECTIVE M1 AGONISTS AND METHODS OF MAKING AND USING SAME” (priority 2010, published 2013).

For one test, the target named is T1, rM1 (Rattus norvegicus, UniProt P08482).
T1 construct: host or cells: CHO-K1
T1 sequence (P08482 1-460): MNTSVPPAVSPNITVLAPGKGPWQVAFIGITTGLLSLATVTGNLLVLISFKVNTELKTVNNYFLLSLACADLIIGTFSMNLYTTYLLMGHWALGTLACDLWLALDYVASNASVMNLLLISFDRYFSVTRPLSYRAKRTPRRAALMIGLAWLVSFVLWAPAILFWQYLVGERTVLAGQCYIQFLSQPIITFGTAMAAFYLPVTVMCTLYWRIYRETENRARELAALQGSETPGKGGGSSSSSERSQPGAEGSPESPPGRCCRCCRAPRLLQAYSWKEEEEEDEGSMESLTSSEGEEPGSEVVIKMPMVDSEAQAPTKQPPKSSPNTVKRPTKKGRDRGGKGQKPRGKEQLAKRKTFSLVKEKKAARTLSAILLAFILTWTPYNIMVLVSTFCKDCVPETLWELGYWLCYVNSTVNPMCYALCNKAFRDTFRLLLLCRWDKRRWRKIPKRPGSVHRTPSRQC
The test is described as follows: Calcium mobilization assay in CHO-K1 cells stably expressing rat M1 (low throughput, Flexstation II). Format: cell-based. The note with it: for Emax: RM1, read-out: Efficacy (% Max ACh). An excerpt:
(§1) Chinese hamster ovary (CHO-K1) cells stably expressing rat (r) M1 were purchased from the American Type Culture Collection and cultured according to their indicated protocol. CHO cells stably expressing human (h)M2, hM3, and hM5 were described previously (Levey et al., 1991); hM1 and hM4 cDNAs were purchased from Missouri S&T cDNA Resource; rM4 cDNA was provided by T. I. Bonner (National Institutes of Health, Bethesda, Md.). hM1, hM4, and rM4 cDNAs were used to stably transfect CHO-K1 cells purchased from the American Type Culture Collection using Lipofectamine2000. To make stable hM2, hM4 and rM4 cell lines for use in calcium mobilization assays, these cells also were stably transfected with a chimeric G-protein (Gqi5) (provided by B. R. Conklin, University of California, San Francisco) using Lipofectamine 2000. rM1, hM3, and hM5 cells were grown in Ham's F-12 medium containing 10% heat-inactivated fetal bovine serum (FBS), 20 mM HEPES, and 50 μg/mL G418 sulfate. hM2-Gqi5 and hM4-Gqi5 cells were grown in the same medium also containing 500 μg/mL Hygromycin B. Stable rM4-Gqi5 cells were grown in DMEM containing 10% heat-inactivated FBS, 20 mM HEPES, 400 μg/mL G418 sulfate, and 500 μg/mL Hygromycin B. The rat M1 Y381A orthosteric mutant receptor cDNA was generated using the Quik-Change site-directed mutagenesis kit (Stratagene) and verified by sequencing. CHO-K1 cells were stably transfected with this cDNA using Lipofectamine2000 and screened for expression based on calcium mobilization in response to the allosteric M1 agonist N-desmethylclozapine.
For low throughput measurement of agonist-evoked increases in intracellular calcium, CHO-K1 cells stably expressing muscarinic receptors were plated in 100 μL of growth medium at 5×10^4 (rM1, hM3, and hM5) or 6×10^4 cells per well (rM1 Y381A, hM2, and rM4) in Costar 96-well black-walled, tissue culture (TC)-treated, clear-bottom plates (Fisher). Cells were incubated overnight at 37° C. and 5% CO2. The next day, medium was removed from the cells, and they were incubated with 50 μL of 2 μM Fluo-4/acetoxymethyl ester (Invitrogen, Carlsbad, Calif.) prepared as a 2.3 mM stock in DMSO and mixed in a 1:1 ratio with 10% (w/v) Pluronic F-127 and diluted in assay buffer [HBSS (Invitrogen) supplemented with 20 mM HEPES and 2.5 mM probenecid, pH 7.4] for 1 h at 37° C. and 5% CO2. Dye was removed and replaced with 50 μL of assay buffer. For calcium fluorescence measurements, CRCs of compounds (50 μl, 2×) were added 19 s after the beginning of data collection via a Flexstation II (Molecular Devices, Sunnyvale, Calif.). Fluorescence imaging continued for a total of 130 s acquisition time using an excitation wavelength of 488 nm, an emission wavelength of 525 nm, and a cutoff wavelength of 515 nm. All of the peaks of the calcium response were normalized to the response to a maximally effective concentration of ACh (ECmax). These normalized peak calcium response values were fit using GraphPad Prism version 4.0 to a four-parameter logistic equation to determine EC50 values.
(In general: Calcium flux is commonly read through the fluorescence of an indicator in the cells.)

The target of another test is T2, hM1 (Homo sapiens, UniProt P11229).
T2 construct: host or cells: CHO-K1
T2 sequence (P11229 1-460): T1 sequence (P08482 1-460) with V5A, S254T, S309P, K320R, G337A, V413I
The test is described as follows: Calcium mobilization assay in CHO-K1 cells stably expressing human M1 (high throughput, FDSS 6000). The class given is cell-based. The note with it: for Emax: HM1, read-out: Efficacy (% Max ACh).
From the text: as §1
For high throughput measurement of agonist-evoked increases in intracellular calcium, CHO-K1 cells stably expressing muscarinic receptors were plated in growth medium lacking G418 and hygromycin at 15,000 cells/20 μL/well (hM1, hM2-Gqi5, hM3, hM4-Gqi5, and hM5) in Greiner 384-well black-walled, tissue culture (TC)-treated, clear-bottom plates (VWR). Cells were incubated overnight at 37° C. and 5% CO2. The next day, cells were washed using an ELX 405 (BioTek) with three washes (50 μL) of assay buffer then aspirated to 15 μL. Next, 5 μL of 8 μM Fluo-4/acetoxymethyl ester (Invitrogen, Carlsbad, Calif.) prepared as a 2.3 mM stock in DMSO and mixed in a 1:1 ratio with 10% (w/v) Pluronic F-127 and diluted in assay buffer was added to the wells and the cell plates were incubated for 45 min at 37° C. and 5% CO2. Dye was removed by washing with the ELX 405 (three 50 μL washes of assay buffer) then aspirated to 20 μL. Agonist and compound master plates were formatted in an 11 point CRC format (1:3 dilutions) in 100% DMSO with a starting concentration of 10 mM using the BRAVO liquid handler (Agilent). Test compound CRCs were then transferred to daughter plates ([…]) using the Echo acoustic plate reformatter (Labcyte, Sunnyvale, Calif.) and then diluted into assay buffer (40 μL) to a 2× stock using a Thermo Fisher Combi (Thermo Fisher Scientific, Waltham, Mass.). Calcium flux was measured using the Functional Drug Screening System (FDSS) 6000 (Hamamatsu Corporation, Tokyo, Japan) as an increase in the fluorescent static ratio. 20 μL of Agonist Compounds were applied to cells using the automated system of the FDSS 6000 at 4 s into the 300 s protocol and the data were collected at 1 Hz. Concentration-response curves were generated using a four-parameter logistical equation in XLfit curve fitting software (IDBS, Bridgewater, N.J.) for Excel (Microsoft, Redmond, Wash.) or Prism (GraphPad Software, Inc., San Diego, Calif.).

The mark [1] stands for this setting: agonist-evoked calcium mobilization, CHO-K1 hM1 cells, read-out: hM1 Potency (EC50).
[2] abbreviates: agonist-evoked calcium mobilization, CHO-K1 rM1 cells, read-out: rM1 Potency (EC50).

Residue numbers refer to the chain shown, from its start. Read-outs that look alike come from different tables or passages of the source.

The EC50 is the concentration at which the effect is half-maximal. Regarding `CCOC(=O)N1C2CCC1CC(N1CCC[C@@H](NC(=O)c3ccccc3C)C1)C2` (stereo partly drawn) [Example 2, ethyl 3-((R)-3-(2-methylbenzamido)piperidin-1-yl)-8-azabicyclo[3.2.1]octane-8-carboxylate], on rM1, the EC50 came to 5 nM and the Emax is 94%. On hM1, the EC50 is 53 nM and the Emax was 88%.

For the compound `CCOC(=O)N1C2CCC1CC(N1CCC[C@@H](NC(=O)c3cc(F)cc(F)c3)C1)C2` (stereo partly drawn) [Example 10, ethyl 3-((R)-3-(3,5-difluorobenzamido)piperidin-1-yl)-8-azabicyclo[3.2.1]octane-8-carboxylate], on rM1, the concentration for a half-maximal effect (EC50) was found to be 96 nM and the Emax was determined as 90%.

`CCOC(=O)N1C2CCC1CC(N1CC[C@@H](NC(=O)c3ccccc3C)C1)C2` (stereo partly drawn) [Example 16, ethyl 3-((R)-3-(2-methylbenzamido)pyrrolidin-1-yl)-8-azabicyclo[3.2.1]octane-8-carboxylate]: the Emax at hM1 was 57%. The 50% effective concentration (EC50) on hM1 (setting [1]) is 940 nM.

Consider `CCOC(=O)N1C2CCC1CC(N1CCC[C@@H](NC(=O)c3ccccc3F)C1)C2` (stereo partly drawn) [Example 13, ethyl 3-((R)-3-(2-fluorobenzamido)piperidin-1-yl)-8-azabicyclo[3.2.1]octane-8-carboxylate], for which the Emax at hM1 worked out at 38%. For the same compound, the EC50 on hM1 (setting [1]) worked out at 4200 nM.

Turning to `CCOC(=O)N1C2CCC1CC(N1CCC[C@@H](NC(=O)c3ccccc3Cl)C1)C2` (stereo partly drawn) [Example 7, ethyl 3-((R)-3-(2-chlorobenzamido)piperidin-1-yl)-8-azabicyclo[3.2.1]octane-8-carboxylate], the EC50 at rM1 worked out at 39 nM; at hM1 it was 570 nM. The Emax was determined as 94% on rM1 and 61% at hM1.

Take `CCOC(=O)N1C2CCC1CC(N1CCC[C@@H](NC(=O)c3ccccc3)C1)C2` (stereo partly drawn) [Example 3, ethyl 3-((R)-3-benzamidopiperidin-1-yl)-8-azabicyclo[3.2.1]octane-8-carboxylate]: the Emax on rM1 is 93%; at hM1, 79%. The EC50 at rM1 (setting [2]) came out at 112 nM; on hM1 (setting [1]) it was 1600 nM.

Take `CCOC(=O)N1C2CCC1CC(N1CCC[C@@H](NC(=O)c3ccc(F)cc3Cl)C1)C2` (stereo partly drawn) [Example 14, ethyl 3-((R)-3-(2-chloro-4-fluorobenzamido)piperidin-1-yl)-8-azabicyclo[3.2.1]octane-8-carboxylate]: on hM1, the Emax was determined as 68%. For the same compound, the concentration giving a half-maximal response (EC50) at hM1 (setting [1]) is 620 nM.

Take `CCOC(=O)N1C2CCC1CC(N1CCC[C@@H](NC(=O)c3cc(Cl)ccc3F)C1)C2` (stereo partly drawn) [Example 11, ethyl 3-((R)-3-(5-chloro-2-fluorobenzamido)piperidin-1-yl)-8-azabicyclo[3.2.1]octane-8-carboxylate]: the Emax on rM1 turned out to be 65%. For the same compound, the concentration giving a half-maximal response (EC50) on rM1 (setting [2]) worked out at 590 nM.

For the compound `CCOC(=O)N1C2CCC1CC(N1CCC[C@@H](NC(=O)c3ccc(F)cc3F)C1)C2` (stereo partly drawn) [Example 5, ethyl 3-((R)-3-(2,4-difluorobenzamido)piperidin-1-yl)-8-azabicyclo[3.2.1]octane-8-carboxylate], at rM1, the EC50 worked out at 69 nM and the Emax was determined as 89%.

`CCOC(=O)N1C2CCC1CC(N1CCC[C@@H](NC(=O)c3c(F)cccc3F)C1)C2` (stereo partly drawn) [Example 15, ethyl 3-((R)-3-(2,6-difluorobenzamido)piperidin-1-yl)-8-azabicyclo[3.2.1]octane-8-carboxylate]: on hM1, the Emax amounted to 66%. For the same compound, the EC50 at hM1 (setting [1]) worked out at 330 nM.

`CCOC(=O)N1C2CCC1CC(N1CCC[C@@H](NC(=O)c3ccc(F)cc3)C1)C2` (stereo partly drawn) [Example 9, ethyl 3-((R)-3-(4-fluorobenzamido)piperidin-1-yl)-8-azabicyclo[3.2.1]octane-8-carboxylate]: on rM1, the concentration giving a half-maximal response (EC50) is 38 nM and the Emax worked out at 95%.

In the case of `CCOC(=O)N1C2CCC1CC(N1CCC[C@@H](NC(=O)c3ccc(F)c(C)c3)C1)C2` (stereo partly drawn) [Example 8, ethyl 3-((R)-3-(4-fluoro-3-methylbenzamido)piperidin-1-yl)-8-azabicyclo[3.2.1]octane-8-carboxylate], at rM1, the EC50 was 48 nM and the Emax amounted to 93%.

Regarding `CCOC(=O)N1C2CCC1CC(N1CC[C@@H](NC(=O)c3ccccc3)C1)C2` (stereo partly drawn) [Example 17, ethyl 3-((R)-3-benzamidopyrrolidin-1-yl)-8-azabicyclo[3.2.1]octane-8-carboxylate], the Emax on hM1 stood at 54%. In addition, the 50% effective concentration (EC50) at hM1 (setting [1]) stood at 160 nM.

In the case of `CCOC(=O)N1C2CCC1CC(N1CCC[C@@H](NC(=O)c3cccc(C)c3)C1)C2` (stereo partly drawn) [Example 6, ethyl 3-((R)-3-(3-methylbenzamido)piperidin-1-yl)-8-azabicyclo[3.2.1]octane-8-carboxylate], on rM1, the EC50 stood at 41 nM and the Emax was found to be 94%.

Regarding `CCOC(=O)N1C2CCC1CC(N1CCC[C@@H](NC(=O)c3ccc(F)c(F)c3)C1)C2` (stereo partly drawn) [Example 12, ethyl 3-((R)-3-(3,4-difluorobenzamido)piperidin-1-yl)-8-azabicyclo[3.2.1]octane-8-carboxylate], the Emax on hM1 is 68%. Further, the concentration for a half-maximal effect (EC50) on hM1 (setting [1]) stood at 750 nM.
